Test results reported in patent US20210024545A1, “SUBSTITUTED DIAZAHETERO-BICYCLIC COMPOUNDS AND THEIR USE” (Bayer Aktiengesellschaft, priority 2016, published 2021).

Assays:
Format in all cases: cell-based
human TASK-1 [1] = biological target: T1, human TASK-1 (Homo sapiens, UniProt O14649); experiment: Two-electrode voltage clamp analysis of human TASK-1 channel in Xenopus laevis oocytes (B-1); set-up: expressed in transfected cells; host or cells: Xenopus laevis oocytes injected with cRNA; settings: Xenopus laevis oocytes injected with TASK-1 cRNA, 21-22° C.
Description: (§1) B-1. In Vitro Electrophysiological Analysis of the Human TASK-1 and TASK-3 Channels via Two-Electrode Voltage Clamp Technique in Xenopus laevis Oocytes
(§2) Xenopus laevis oocytes were selected as described elsewhere by way of illustration [Decher et al., FEBS Lett. 492, 84-89 (2001)]. Subsequently, the oocytes were injected with 0.5-5 ng of a cRNA solution coding for TASK-1 or TASK-3. For the electrophysiological analysis of the channel proteins expressed in the oocytes, the two-electrode voltage clamp technique [Stühmer, Methods Enzymol. 207, 319-339 (1992)] was used. The measurements were conducted as described [Decher et al., FEBS Lett. 492, 84-89 (2001)] at room temperature (21-22° C.) using a Turbo TEC 10CD amplifier (NPI), recorded at 2 kHz and filtered with 0.4 kHz. Substance administration was performed using a gravitation-driven perfusion system. Here, the oocyte is located in a measuring chamber and exposed to the solution stream of 10 ml/min The level in the measuring chamber is monitored and regulated by sucking off the solution using a peristaltic pump.

human TASK-1 [2] = biological target: T1, human TASK-1; experiment: Inhibition of recombinant TASK-1 in stably transfected CHO cells, KCl-induced depolarization, voltage-sensitive dye (B-2); set-up: expressed in transfected cells; host or cells: stably transfected CHO cells; settings: depolarization induced by 40 mM potassium chloride, some mean values from multiple determinations
Summary of the method: (§3)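 Stably transfected CHO cells loaded with a voltage-sensitive membrane potential dye. Depolarization was induced with 40 mM KCl, and compound inhibition of it was read by fluorescence. IC50 is the concentration blocking half of the KCl-induced depolarization; some values are means of multiple independent determinations.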

human TASK-3 [3] = biological target: T2, human TASK-3 (Homo sapiens, UniProt Q9NPC2); experiment: Two-electrode voltage clamp analysis of human TASK-3 channel in Xenopus laevis oocytes (B-1); set-up: expressed in transfected cells; host or cells: Xenopus laevis oocytes injected with cRNA; settings: Xenopus laevis oocytes injected with TASK-3 cRNA, 21-22° C.
Description: as §1, §2

human TASK-3 [4] = biological target: T2, human TASK-3; experiment: Inhibition of recombinant TASK-3 in stably transfected CHO cells, KCl-induced depolarization, voltage-sensitive dye (B-2); set-up: expressed in transfected cells; host or cells: stably transfected CHO cells; settings: depolarization induced by 40 mM potassium chloride, some mean values from multiple determinations
Summary of the method: as §3

human TASK-1 [5] = biological target: T1, human TASK-1; experiment: Washout rate after binding to the human TASK-1 channel, two-electrode voltage clamp in Xenopus laevis oocytes (B-4); set-up: expressed in transfected cells; host or cells: Xenopus laevis oocytes injected with cRNA transcribed from the pSGEM vector; settings: TASK-1 inhibited beforehand by about 40% at the concentration of Table 3 (30-80 nM); restoration of current recorded over at least one hour
Text: The washout rate is defined as the washout of a compound according to the invention from the TASK-1 channel in % h^−1, measured by means of electrophysiological analysis on TASK-1-expressing Xenopus laevis oocytes via the two-electrode voltage clamp technique according to the description in section B-4.
B-4. In Vitro Electrophysiological Analysis of the Washout Rate of Compounds After Binding to the Human TASK-1 Channel via Two-Electrode Voltage Clamp Technique in Xenopus laevis Oocytes
Xenopus laevis oocytes were obtained from animals that had been anaesthetized with tricaine. Ovaries were treated with collagenase (1 mg/ml, Worthington, type II), stored in OR2 solution (82.5 mM NaCl, 2 mM KC1, 1 mM MgCl2, 5 mM HEPES; pH 7.4) for 120 min and then kept in the ND96 standard solution (96 mM NaCl, 2 mM KC1, 1.8 mM CaCl2, 1 mM MgCl2, 5 mM HEPES; pH 7.5) with additional sodium pyruvate (275 mg/l), theophylline (90 mg/1) and gentamicin (50 mg/1) at 18° C. hTASK-1 and hTASK-3 were subcloned into the pSGEM vector, and cRNA was produced after linearization with NHEI and in vitro transcription with T7 polymerase. Oocytes were injected individually with 5-20 ng of cRNA solution that encodes hTASK-1. Standard two-electrode voltage clamp recordings [Stühmer, Methods Enzymol. 207, 319-339 (1992)] were conducted at room temperature (21-22° C.) with a Turbo-TEC-10CD amplifier (NPI) as described above [Decher et al., FEBS Lett. 492, 84-89 (2001)]. The measurement interval was 2 kHz, and the data were filtered at 0.4 kHz. Substances were applied in a gravity-driven manner via the bath solution, using ND96. In summary, Xenopus laevis oocytes were selected as described above, injected with TASK-1 cRNA and subjected to an electrophysiological analysis via the two-electrode voltage clamp technique.
The TASK-1 channels were inhibited beforehand by a value of about 40% by administration of one of the compounds of the invention. The concentrations shown in Table 3 below were established here, which had been ascertained beforehand by determining the IC50 values in question. Subsequently, the restoration of the TASK-1-related membrane current was recorded in the voltage clamp over at least one hour. This restoration is caused by the washout of the compound in question from the TASK-1 channel
At least 6 oocytes were examined for every compound. The voltage clamp measurements took a total of at least 1.5 hours (administration of the inhibitor plus at least one subsequent hour of washout measurement).

T1 sequence (O14649 whole entry): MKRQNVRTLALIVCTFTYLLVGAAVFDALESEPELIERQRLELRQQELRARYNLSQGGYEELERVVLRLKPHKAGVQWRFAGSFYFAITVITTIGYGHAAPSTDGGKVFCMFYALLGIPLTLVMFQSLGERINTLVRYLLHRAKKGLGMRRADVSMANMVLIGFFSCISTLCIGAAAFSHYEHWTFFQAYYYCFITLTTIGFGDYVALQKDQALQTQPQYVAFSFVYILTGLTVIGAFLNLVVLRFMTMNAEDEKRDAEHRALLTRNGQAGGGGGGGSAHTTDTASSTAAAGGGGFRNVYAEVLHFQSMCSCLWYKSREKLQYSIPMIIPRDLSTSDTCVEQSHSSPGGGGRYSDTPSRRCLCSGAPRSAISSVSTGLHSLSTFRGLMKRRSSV
T2 sequence (Q9NPC2 whole entry): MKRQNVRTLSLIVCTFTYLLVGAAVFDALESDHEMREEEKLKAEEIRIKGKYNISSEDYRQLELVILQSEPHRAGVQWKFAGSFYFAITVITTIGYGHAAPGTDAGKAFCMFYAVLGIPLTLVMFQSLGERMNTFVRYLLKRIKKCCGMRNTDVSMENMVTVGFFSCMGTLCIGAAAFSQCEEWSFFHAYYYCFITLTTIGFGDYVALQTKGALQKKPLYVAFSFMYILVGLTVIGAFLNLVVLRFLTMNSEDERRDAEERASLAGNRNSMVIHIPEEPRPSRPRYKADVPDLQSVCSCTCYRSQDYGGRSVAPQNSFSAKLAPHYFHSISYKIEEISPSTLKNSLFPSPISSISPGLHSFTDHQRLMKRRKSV

SMILES	IC50 (human TASK-1 [1])	IC50 (human TASK-1 [2])	IC50 (human TASK-3 [3])	IC50 (human TASK-3 [4])	Washout rate (human TASK-1 [5])
COc1ccc(F)c(C(=O)N2CC3CCC2CN3Cc2c(-c3ccc(C(C)C)nc3)nc3ccccn23)n1 (single isomer, unassigned) [Example 126, (3-Fluoro-6-methoxypyridin-2-yl)(5-{[2-(6-isopropylpyridin-3-yl)imidazo[1,2-a]pyridin-3-yl]methyl}-2,5-diazabicyclo[2.2.2]oct-2-yl)methanone]	0.127 ± 0.0085 µM	17.9 µM	0.7142 ± 0.0009 µM	0.713 µM	–
COc1cccc(C(=O)N2CC3CCC(C2)N3Cc2c(-c3ccc(Cl)cc3)nc3ccccn23)n1 [Example 92]	0.0135 ± 0.0012 µM	0.895 µM	0.0059 ± 0.0018 µM	0.029 µM	–
COc1cccc(C(=O)N2C3CCC2CN(Cc2c(-c4ccc(Cl)cc4)nc4ccccn24)C3)n1 [Example 104]	0.0607 ± 0.012 µM	0.255 µM	0.0042 ± 0.001 µM	0.032 µM	–
COc1cccc(C(=O)N2C3COCC2CN(Cc2c(-c4ccc(Cl)cc4)nc4ccccn24)C3)n1 [Example 29, (7-{[2-(4-Chlorophenyl)imidazo[1,2-a]pyridin-3-yl]methyl}-3-oxa-7,9-diazabicyclo[3.3.1]non-9-yl)(6-methoxypyridin-2-yl)methanone]	–	0.46 µM	–	0.05 µM	17 % h^−1
O=C(C1CCCO1)N1C2CC1CN(Cc1c(-c3ccc(Cl)cc3)nc3ccccn13)C2 (racemic) [Example 115]	0.0228 ± 0.0037 µM	4.24 µM	0.186 ± 0.0054 µM	2.4 µM	–
COc1cccc(C(=O)N2C3CCC2CN(Cc2c(-c4ccc(Cl)cn4)nc4ccccn24)C3)n1 [Example 33, (3-{[2-(5-Chloropyridin-2-yl)imidazo[1,2-a]pyridin-3-yl]methyl}-3,8-diazabicyclo[3.2.1]oct-8-yl)(6-methoxypyridin-2-yl)methanone]	–	0.14 µM	–	0.026 µM	55 % h^−1
COc1ccc(F)c(C(=O)N2CC3CCC2CN3Cc2c(-c3ccc(Cl)cn3)nc3ccccn23)n1 (single isomer, unassigned; enantiomer 1) [Example 24, (5-{[2-(5-Chloropyridin-2-yl)imidazo[1,2-a]pyridin-3-yl]methyl}-2,5-diazabicyclo[2.2.2]oct-2-yl)(3-fluoro-6-methoxypyridin-2-yl)methanone (enantiomer 1)]	–	0.14 µM	0.0312 ± 0.0058 µM	0.0045 µM	–
COc1cccc(C(=O)N2C[C@H]3CC[C@@H]2CN3Cc2c(-c3ccc(Cl)cc3)nc3ccccn23)n1 [Example 34]	0.0186 ± 0.0043 µM	0.855 µM	0.0103 ± 0.0009 µM	0.084 µM	–
O=C(C1CCCC1)N1CC2CCC(C1)N2Cc1c(-c2ccc(Cl)cc2)nc2ccccn12 [Example 86]	0.0171 ± 0.0035 µM	0.331 µM	0.0584 ± 0.0121 µM	0.126 µM	–
COc1cccc(C(=O)N2C3CCC2CN(Cc2c(-c4ccc(Cl)cc4)nc4ccccn24)C3)c1 [Example 108]	–	1.1 µM	–	0.095 µM	–
Cc1cccc(C(=O)N2CC3CCC2CN3Cc2c(-c3ccc(Cl)cc3)nc3ccccn23)c1 (single isomer, unassigned) [Example 53]	–	0.14 µM	–	0.034 µM	–
COc1ccccc1C(=O)N1CC2CCC(C1)N2Cc1c(-c2ccc(Cl)cc2)nc2ccccn12 [Example 91]	–	1.35 µM	–	0.089 µM	–
O=C(C1CCCCC1)N1CC2CCC1CN2Cc1c(-c2ccc(Cl)cc2)nc2ccccn12 (single isomer, unassigned) [Example 42]	–	0.88 µM	–	0.017 µM	–
CCCCCNC(=O)N1C2CCC1CN(Cc1c(-c3ccc(Cl)cc3)nc3ccccn13)C2 [Example 158, 3-{[2-(4-Chlorophenyl)imidazo[1,2-a]pyridin-3-yl]methyl}-N-pentyl-3,8-diazabicyclo[3.2.1]octane-8-carboxamide]	–	0.76 µM	–	0.11 µM	–
COc1cccc(C(=O)N2CC3CCC(C2)N3Cc2c(-c3ccc(C(C)C)cc3)nc3ccccn23)n1 [Example 95]	–	1.7 µM	–	0.35 µM	–
COc1cccc(C(=O)N2CC3CCC(C2)N3Cc2c(-c3ccc(Br)cc3)nc3ccccn23)n1 [Example 83]	–	0.134 µM	–	0.014 µM	–
O=C(c1cccc(OC(F)(F)F)c1)N1CC2CCC1CN2Cc1c(-c2ccc(Cl)cc2)nc2ccccn12 (single isomer, unassigned) [Example 48]	–	0.39 µM	–	0.017 µM	–
CCN(C(=O)N1C2COCC1CN(Cc1c(-c3ccc(Cl)cc3)nc3ccccn13)C2)c1ccccc1 [Example 193, 7-{[2-(4-Chlorophenyl)imidazo[1,2-a]pyridin-3-yl]methyl}-N-ethyl-N-phenyl-3-oxa-7,9-diazabicyclo[3.3.1]nonane-9-carboxamide]	–	7.1 µM	–	0.1 µM	–
O=C(c1ccccc1F)N1CC2CCC1CN2Cc1c(-c2ccc(Cl)cn2)nc2ccccn12 (centres unmarked) [Example 64]	–	0.28 µM	–	0.017 µM	–
COC(=O)N1C2CCC1CN(Cc1c(-c3ccc(Cl)cc3)nc3ccccn13)C2 [Example 184, Methyl 3-{[2-(4-chlorophenyl)imidazo[1,2-a]pyridin-3-yl]methyl}-3,8-diazabicyclo[3.2.1]octane-8-carboxylate]	–	2.9 µM	–	0.072 µM	–
COc1ccc(Cl)c(C(=O)N2C3CCC2CN(Cc2c(-c4ccc(Br)cc4)nc4ccccn24)C3)n1 [Example 139, (3-{[2-(4-Bromophenyl)imidazo[1,2-a]pyridin-3-yl]methyl}-3,8-diazabicyclo[3.2.1]oct-8-yl)(3-chloro-6-methoxypyridin-2-yl)methanone]	–	0.29 µM	–	0.018 µM	–
O=C(c1ccccc1F)N1CC2CCC(C1)N2Cc1c(-c2ccc(Br)cc2)nc2ccccn12 [Example 82]	–	0.23 µM	–	0.42 µM	–
O=C(c1ccccc1F)N1C2CCC1CN(Cc1c(-c3ccc(Cl)cc3)nc3ccccn13)C2 [Example 102]	0.0087 ± 0.0036 µM	0.277 µM	0.0043 ± 0.0035 µM	0.056 µM	–
COc1ccc(F)c(C(=O)N2CC3CCC2CN3Cc2c(-c3ccc(C(C)C)nc3)nc3ccccn23)n1 (single isomer, unassigned) [Example 127, (3-Fluoro-6-methoxypyridin-2-yl)(5-{[2-(6-isopropylpyridin-3-yl)imidazo[1,2-a]pyridin-3-yl]methyl}-2,5-diazabicyclo[2.2.2]oct-2-yl)methanone]	–	9.45 µM	–	0.67 µM	–
